# In ChEMBL document CHEMBL5390201, “The Natural Alkaloid (-)-N-Hydroxyapiosporamide Suppresses Colorectal Tumor Progression as an NF-κB Pathway Inhibitor by Targeting the TAK1-TRAF6 Complex” (J Nat Prod, 2023):
# Activity calls are given as the source filed them. No cut-off for these calls is given here.
# What was measured:
# HT-29 [1] = assay: Induction of cell cycle arrest in human HT-29 cells assessed as accumulation of cells at G2/M phase at 10 uM by RNase/PI staining based flow cytometry analysis (reference value: 9.93 %); type: functional
# [2] = Toxicity in athymic nude BALB/c mouse xenografted with human HT-29 cells assessed as pathological changes in kidney at 5 to 15 mg/kg, ip administered every other day and measured after 14 days by hematoxylin and eosin staining-based microscopic analysis; type: organism-based; settings: in vivo, 336 h, dose 5-15 mg/kg, time 14 day
# HCT-116 [3] = assay: Induction of cell cycle arrest in human HCT-116 cells assessed as accumulation of cells at S phase at 1 uM by RNase/PI staining based flow cytometry analysis (reference value: 43.77 %); type: functional
# HCT-116 [4] = assay: Induction of apoptosis in human HCT-116 cells assessed as viable cells at 0.5 uM incubated for 24 hrs by Annexin V-FITC/PI staining based flow cytometric analysis (reference value: 88.8%); type: functional; settings: read-out: Activity
# HT-29 [5] = assay: Induction of cell cycle arrest in human HT-29 cells assessed as accumulation of cells at G2/M phase at 5 uM by RNase/PI staining based flow cytometry analysis (reference value: 9.93 %); type: functional
# HCT-116 [6] = assay: Cytotoxicity against human HCT-116 cells assessed as inhibition of cell growth incubated for 24 hrs by SRB assay; type: functional, cell-based; settings: HCT-116, 24 h
# Mus musculus [7] = assay: (§1) Anti-inflammatory activity in AOM/DSS-induced BALB/c mouse model inflammatory bowel disease assessed as reduction in death rate at 5 to 10 mg/kg, ip pretreated with AOM for 7 days further replaced with DSS for 7 days and repeated for 2 times followed by every 2 days compound treatment for […] starting from day 50 and measured once a week; type: functional, organism-based; settings: dose 5-10 mg/kg, time 21.0 day
# HT-29 [8] = assay: Induction of apoptosis in human HT-29 cells assessed as necrotic cells at 10 uM incubated for 24 hrs by Annexin V-FITC/PI staining based flow cytometric analysis (reference value: 0.14 %); type: functional
# Mus musculus [9] = assay: as §1, with “hyperplasia” for “death rate”, “at” for “at 5 to”, “50 by H” for “50”, “E staining based analysis” for “measured once a week”; type: functional, organism-based; settings: time 21.0 day
# HCT-116 [10] = assay: Induction of apoptosis in human HCT-116 cells assessed as inhibition of PARP protein expression measured for 24 hrs by Western blot analysis; type: functional, cell-based; settings: dose 0-10 µM
# HT-29 [11] = assay: Induction of cell cycle arrest in human HT-29 cells assessed as decrease in Cyclin B protein expression upto 10 uM incubated for 24 hrs by Western blot analysis; type: functional, cell-based
# HT-29 [12] = assay: Induction of apoptosis in human HT-29 cells assessed as early apoptotic cells at 5 uM preincubated with Z-VAD-FMK for 1 hr followed by compound addition and measured after 24 hrs by Annexin V-FITC/PI staining based flow cytometric analysis (reference value: 4.05 %); type: functional
# Mus musculus [13] = assay: In vivo inhibition of NFkappaB activation in athymic BALB/c mouse xenografted with human HT-29 cells assessed as reduction in A20 gene expression in tumor at 5 to 15 mg/kg, ip administered every other day and measured after 14 days by qRT-PCR analysis; type: functional, organism-based; settings: dose 5-15 mg/kg, time 14.0 day
# HT-29 [14] = assay: Induction of apoptosis in human HT-29 cells assessed as necrotic cells at 1 uM incubated for 24 hrs by Annexin V-FITC/PI staining based flow cytometric analysis (reference value: 0.14 %); type: functional
# HT-29 [15] = assay: Induction of apoptosis in human HT-29 cells assessed as late apoptotic cells at 1 uM incubated for 24 hrs by Annexin V-FITC/PI staining based flow cytometric analysis (reference value: 1.56 %); type: functional
# [16] = target: T1, Nuclear factor NF-kappa-B complex (Homo sapiens) (UniProt Q00653+P19838+Q04206); assay: Inhibition of TNF-alpha induced NFkappaB activation in human HT-29 cells assessed as downregulation of A20 gene expression pretreated for 24 hrs followed by TNFalpha stimulation and measured after 2 hrs by quantitative RT-PCR analysis; type: cell-based; settings: dose 1-10 µM, time 26.0 hrs
# T1 sequence (P19838 whole entry, looked up): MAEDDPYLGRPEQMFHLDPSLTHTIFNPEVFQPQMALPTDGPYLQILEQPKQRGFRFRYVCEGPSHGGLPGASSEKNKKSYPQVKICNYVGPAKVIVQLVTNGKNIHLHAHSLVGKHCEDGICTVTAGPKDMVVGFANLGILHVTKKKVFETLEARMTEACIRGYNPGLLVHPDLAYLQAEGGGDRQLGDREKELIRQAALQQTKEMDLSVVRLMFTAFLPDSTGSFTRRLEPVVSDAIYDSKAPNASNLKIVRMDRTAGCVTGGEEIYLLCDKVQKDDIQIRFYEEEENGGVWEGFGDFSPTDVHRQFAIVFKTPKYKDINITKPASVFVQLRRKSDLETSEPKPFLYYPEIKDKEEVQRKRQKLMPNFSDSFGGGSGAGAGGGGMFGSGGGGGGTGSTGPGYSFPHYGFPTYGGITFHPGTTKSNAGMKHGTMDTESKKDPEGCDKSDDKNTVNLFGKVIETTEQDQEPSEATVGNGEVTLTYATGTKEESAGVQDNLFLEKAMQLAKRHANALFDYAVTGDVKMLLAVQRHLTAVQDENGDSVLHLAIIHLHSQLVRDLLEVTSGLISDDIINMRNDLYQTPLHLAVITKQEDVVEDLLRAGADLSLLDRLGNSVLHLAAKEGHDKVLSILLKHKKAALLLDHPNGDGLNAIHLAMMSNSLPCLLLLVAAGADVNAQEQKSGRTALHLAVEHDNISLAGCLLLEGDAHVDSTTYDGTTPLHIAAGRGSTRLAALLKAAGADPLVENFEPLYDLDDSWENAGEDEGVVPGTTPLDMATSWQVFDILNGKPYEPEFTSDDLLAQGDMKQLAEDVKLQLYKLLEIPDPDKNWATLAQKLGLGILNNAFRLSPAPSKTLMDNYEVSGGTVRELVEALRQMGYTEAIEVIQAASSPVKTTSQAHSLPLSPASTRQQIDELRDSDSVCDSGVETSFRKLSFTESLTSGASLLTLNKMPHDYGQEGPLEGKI
# T1 sequence (Q00653 whole entry, looked up): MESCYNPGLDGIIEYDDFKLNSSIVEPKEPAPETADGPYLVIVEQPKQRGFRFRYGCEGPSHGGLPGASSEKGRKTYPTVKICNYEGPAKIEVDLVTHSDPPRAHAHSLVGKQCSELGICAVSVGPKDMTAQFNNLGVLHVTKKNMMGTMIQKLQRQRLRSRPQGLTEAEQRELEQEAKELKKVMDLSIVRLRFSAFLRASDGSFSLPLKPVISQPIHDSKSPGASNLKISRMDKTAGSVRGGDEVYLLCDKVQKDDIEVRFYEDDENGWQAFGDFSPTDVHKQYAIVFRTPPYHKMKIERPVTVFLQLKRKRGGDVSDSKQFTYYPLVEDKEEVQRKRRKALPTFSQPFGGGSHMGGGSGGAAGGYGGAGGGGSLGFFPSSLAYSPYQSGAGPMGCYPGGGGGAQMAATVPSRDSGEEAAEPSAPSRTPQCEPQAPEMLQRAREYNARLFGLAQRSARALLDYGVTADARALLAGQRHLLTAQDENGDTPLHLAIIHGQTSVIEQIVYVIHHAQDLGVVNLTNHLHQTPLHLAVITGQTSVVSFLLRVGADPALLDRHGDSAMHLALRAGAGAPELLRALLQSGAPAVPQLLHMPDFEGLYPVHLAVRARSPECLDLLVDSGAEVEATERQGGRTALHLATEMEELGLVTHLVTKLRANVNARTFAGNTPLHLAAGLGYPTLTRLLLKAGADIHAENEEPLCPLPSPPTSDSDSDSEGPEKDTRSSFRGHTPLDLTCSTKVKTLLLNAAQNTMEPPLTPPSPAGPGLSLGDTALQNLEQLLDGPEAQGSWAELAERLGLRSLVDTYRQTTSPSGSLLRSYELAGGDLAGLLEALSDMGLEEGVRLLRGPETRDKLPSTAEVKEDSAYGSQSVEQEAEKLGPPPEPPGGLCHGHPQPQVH
# T1 sequence (Q04206 whole entry, looked up): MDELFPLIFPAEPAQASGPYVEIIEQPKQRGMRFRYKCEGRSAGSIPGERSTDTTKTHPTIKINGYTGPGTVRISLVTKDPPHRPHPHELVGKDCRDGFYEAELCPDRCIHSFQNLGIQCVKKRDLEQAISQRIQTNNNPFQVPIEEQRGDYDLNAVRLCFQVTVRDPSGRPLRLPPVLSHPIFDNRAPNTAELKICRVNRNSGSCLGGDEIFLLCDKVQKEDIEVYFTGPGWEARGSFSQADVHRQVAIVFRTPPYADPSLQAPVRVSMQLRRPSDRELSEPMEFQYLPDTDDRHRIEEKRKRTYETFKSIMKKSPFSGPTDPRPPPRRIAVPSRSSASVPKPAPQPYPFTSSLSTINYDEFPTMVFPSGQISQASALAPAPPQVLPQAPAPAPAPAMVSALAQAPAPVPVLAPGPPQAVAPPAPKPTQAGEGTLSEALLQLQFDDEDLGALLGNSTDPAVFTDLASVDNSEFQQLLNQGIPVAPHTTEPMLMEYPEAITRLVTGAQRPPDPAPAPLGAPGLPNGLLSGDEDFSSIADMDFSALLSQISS
# [17] = target: T1, Nuclear factor NF-kappa-B complex (Homo sapiens); assay: Inhibition of NFkappaB activation in HEK293T cells transfected with Flag-tagged MyD88 and kappaB luciferase/pTK-renilla reporters at 2 uM incubated for 6 hrs by Dual Luciferase Reporter Assay; type: cell-based; settings: HEK-293T
# HCT-116 [18] = assay: Induction of cell cycle arrest in human HCT-116 cells assessed as accumulation of cells at G2/M phase at 1 uM by RNase/PI staining based flow cytometry analysis (reference value: 23.15 %); type: functional
# HCT-116 [19] = assay: Induction of autophagy in human HCT-116 cells assessed as increase in autophagic vesicles at 1 to 10 uM incubated for 24 hrs MDC staining-based fluorescence microscopy; type: functional, cell-based; settings: dose 1-10 µM
# [20] = Toxicity in athymic nude BALB/c mouse xenografted with human HCT-116 cells assessed as reduction in body weight at 5 to 15 mg/kg, ip administered every other day and measured every other day for 16 days; type: organism-based; settings: in vivo, 384 h, dose 5-15 mg/kg, time 16 day
# HT-29 [21] = assay: Induction of cell cycle arrest in human HT-29 cells assessed as decrease in CDK2 protein expression upto 10 uM incubated for 24 hrs by Western blot analysis; type: functional, cell-based
# HCT-116 [22] = assay: Induction of apoptosis in human HCT-116 cells assessed as necrotic cells at 5 uM incubated for 24 hrs by Annexin V-FITC/PI staining based flow cytometric analysis (reference value: 1.1 %); type: functional
# HCT-116 [23] = assay: Induction of apoptosis in human HCT-116 cells assessed as late apoptotic cells at 5 uM preincubated with Z-VAD-FMK for 1 hr followed by compound addition and measured after 24 hrs by Annexin V-FITC/PI staining based flow cytometric analysis (reference value: 9.37 %); type: functional
# HT-29 [24] = assay: Antitumor activity against human HT-29 cells xenografted in athymic nude BALB/c mouse assessed as induction of apoptosis by measuring increase in cleaved PARP expression in tumor at 15 mg/kg, ip administered every other day and measured after 14 days by immunohistochemistry analysis; type: functional, organism-based; settings: time 14.0 day
# [25] = target: T1, Nuclear factor NF-kappa-B complex (Homo sapiens); assay: Inhibition of TNF-alpha induced NFkappaB activation in human HCT-116 cells assessed as inhibition of IL-8 production at 2 uM pretreated for 24 hrs followed by TNFalpha stimulation for 4 hrs by ELISA; type: cell-based; settings: time 28.0 hrs
# HT-29 [26] = assay: Induction of apoptosis in human HT-29 cells assessed as inhibition of caspase 9 protein expression measured for 24 hrs by Western blot analysis; type: functional, cell-based; settings: dose 0-10 µM
# HT-29 [27] = assay: Induction of autophagy in human HT-29 cells assessed as increase in LC3I to LC3II conversion at 1 to 10 uM incubated for 24 hrs by Western blotting analysis; type: functional, cell-based; settings: dose 1-10 µM
# HCT-116 [28] = assay: Induction of apoptosis in human HCT-116 cells assessed as necrotic cells at 1 uM incubated for 24 hrs by Annexin V-FITC/PI staining based flow cytometric analysis (reference value: 1.1 %); type: functional
# HCT-116 [29] = assay: Antitumor activity against human HCT-116 cells xenografted in athymic nude BALB/c mouse assessed as induction of autophagy by measuring increase in LC3B expression in tumor at 15 mg/kg, ip administered every other day and measured after 14 days by immunohistochemistry analysis; type: functional, organism-based; settings: time 14.0 day
# HCT-116 [30] = assay: Induction of autophagic cell death in human HCT-116 cells at 1 to 10 uM pretreated with chloroquine for 1 hr followed by compound addition and measured after 24 hrs by SRB assay; type: functional, cell-based; settings: dose 1-10 µM
smiles,measurement,setting,value
C[C@@H]1CC[C@H]2[C@H](C(=O)c3c(O)c([C@@]4(O)CC[C@@H](O)[C@H]5O[C@H]54)cn(O)c3=O)[C@H](C)C=C[C@@H]2C1,Activity,HT-29 [1],0.78%
same,Activity,[2],Non-Toxic
same,Activity,HCT-116 [3],43.65%
same,viability at 0.5 µM,HCT-116 [4],51.7%
same,Activity,HT-29 [5],0.17%
same,IC50,HCT-116 [6],2.8 µM
same,Activity,Mus musculus [7],Active
same,Activity,HT-29 [8],0.16%
same,Activity,Mus musculus [9],Active
same,Activity,HCT-116 [10],Dose-Dependent Effect
same,Activity,HT-29 [11],Active
same,Activity,HT-29 [12],17.1%
same,inhibition,Mus musculus [13],Active
same,Activity,HT-29 [14],0.4%
same,Activity,HT-29 [15],7.39%
same,inhibition,[16],Dose-Dependent Effect
same,inhibition,[17],Active
same,Activity,HCT-116 [18],20.12%
same,Activity,HCT-116 [19],Active
same,Activity,[20],Non-Toxic
same,Activity,HT-29 [21],Active
same,Activity,HCT-116 [22],2.9%
same,Activity,HCT-116 [23],53.3%
same,Activity,HT-29 [24],Active
same,inhibition,[25],Active
same,Activity,HT-29 [26],Dose-Dependent Effect
same,Activity,HT-29 [27],Active
same,Activity,HCT-116 [28],2.41%
same,Activity,HCT-116 [29],Active
same,Activity,HCT-116 [30],inactive
